Source: US8268575B2, “NAD biosynthesis systems” (Washington University, priority 2004, dated 2012)
Entries after “also recorded” stand apart in the source; their conditions may differ.

How the values were obtained:
[1] = biological target: T1, purified recombinant mouse Nmnat (Mus musculus, UniProt Q9EPA7); test: enzyme-coupled fluorometric assay, kinetic parameters for Nmnat; type: biochemical; settings: substrate of Nmnat
T1 construct: the purified full-length His-tagged Nampt and Nmnat recombinant proteins; made in house; host or cells: E. coli BL21(DE3)pLysS
T1 sequence (Q9EPA7 whole entry): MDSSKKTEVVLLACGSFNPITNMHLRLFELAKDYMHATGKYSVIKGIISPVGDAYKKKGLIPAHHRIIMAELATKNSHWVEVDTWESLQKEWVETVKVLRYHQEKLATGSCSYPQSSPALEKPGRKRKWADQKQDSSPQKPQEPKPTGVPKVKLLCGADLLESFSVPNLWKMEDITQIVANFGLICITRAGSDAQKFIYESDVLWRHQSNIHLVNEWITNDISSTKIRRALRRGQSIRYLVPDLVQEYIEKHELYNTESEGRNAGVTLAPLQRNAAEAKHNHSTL
Description: (§1) Enzymatic activities of recombinant Nampt and Nmnat proteins were measured by an enzyme-coupled fluorometric assay (see e.g. FIG. 2A). In this enzyme-coupled reaction, NAD is converted to NADH by alcohol dehydrogenase, and the fluorescence of NADH is detected in a fluorometer. To establish this assay system, optimal reaction conditions for Nmnat were initially examined by varying ATP and Mg^2+ concentrations and pH of the reaction buffer. The resultant reaction buffer for Nmnat contained 50 mM HEPES [pH 7.4], 0.02% BSA, 12 mM MgCl2, 2 mM ATP, 1.5% ethanol, and 30 μg/ml alcohol dehydrogenase to convert NAD to NADH. To determine the kinetic parameters for Nmnat, 30 ng of purified His-tagged Nmnat and varying concentrations of NMN were added to 1 ml of the reaction buffer. The reactions were run at 37° C. and quenched at six time points by the addition of 250 μl of 0.5 M EDTA. The production of NADH was measured by excitation at 340 nm and emission at 460 nm in a fluorometer. […] NADH production was measured continuously in a fluorometer.

[2] = biological target: T2, purified recombinant mouse Nampt (Mus musculus, UniProt Q99KQ4); test: enzyme-coupled fluorometric assay, kinetic characterization of Nampt; type: biochemical; settings: substrate of Nampt
T2 construct: the purified full-length His-tagged Nampt and Nmnat recombinant proteins; made in house; host or cells: E. coli BL21(DE3)pLysS
T2 sequence (Q99KQ4 whole entry): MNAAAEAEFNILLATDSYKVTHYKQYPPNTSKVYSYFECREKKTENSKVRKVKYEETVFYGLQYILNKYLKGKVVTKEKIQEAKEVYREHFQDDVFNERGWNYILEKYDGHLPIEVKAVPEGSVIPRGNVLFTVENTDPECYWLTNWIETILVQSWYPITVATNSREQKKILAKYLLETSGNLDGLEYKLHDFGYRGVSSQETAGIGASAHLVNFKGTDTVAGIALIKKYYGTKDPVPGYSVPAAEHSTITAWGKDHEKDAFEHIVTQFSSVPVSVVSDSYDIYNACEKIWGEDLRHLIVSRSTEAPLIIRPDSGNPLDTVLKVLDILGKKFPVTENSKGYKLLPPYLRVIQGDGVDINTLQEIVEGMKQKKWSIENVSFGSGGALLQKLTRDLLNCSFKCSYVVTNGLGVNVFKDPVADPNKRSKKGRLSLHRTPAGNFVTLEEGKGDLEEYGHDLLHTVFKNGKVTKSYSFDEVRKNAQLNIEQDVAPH
Description: as §1

NIH3T3 cells = test: total cellular NAD levels by HPLC in NIH3T3 cells; type: cell-based, mouse; settings: 5 mM added to the medium
Description: Total cellular levels of NAD was measured in the NIH3T3 cell lines overexpressing the untagged enzymes. High performance liquid chromatography was used to measure NAD (Neubert et al., Biochim. Biophys. Acta. (1964) 92, 610-612; Emanuelli et al., J. Chromatogr. (1996) B. 676, 13-18). Briefly, 5×10^5 cells were plated in 6 cm dishes and harvested 48 h later in 800 μl of ice-cold PBS. Cells were then spun down and lysed with 300 μl of 1 M HClO4 on ice for 10 min. Lysates were cleared by centrifugating at 4° C. at 18,000 g for 5 minutes. Cleared lysates (240 μl) were neutralized by adding 80 μl of 3M K2CO3 and incubating on ice for 10 minutes. After centrifuging for 10 min, 100 μl of the supernatant were mixed with 400 μl of Buffer A and loaded onto the column. The HPLC was run at a flow rate of 1 ml/min with 100% Buffer A from 0 to 5 min, a linear gradient to 95% Buffer A and 5% Buffer B (100% methanol) from 5 to 6 min, 95% Buffer A and 5% Buffer B from 6 to 11 min, a linear gradient to 85% Buffer A and 15% Buffer B from 11 to 13 min, 85% Buffer A and 15% Buffer B from 13 to 23 min, and a linear gradient to 100% Buffer A from 23 to 24 min. NAD was eluted as a sharp peak at 22 min. The amount of NAD was quantitated based on the peak area compared to a standard curve.

[3] = biological target: GAL4 DBD fused to the Sir2α catalytic core domain (GAL4 DBD-mCORE) (Mus musculus, UniProt Q923E4); settings: 5 mM, added 24 h after transfection, NIH3T3 cells
GAL4 DBD fused to the Sir2α catalytic core domain (GAL4 DBD-mCORE), sequence (Q923E4 with tags, fused parts or gaps): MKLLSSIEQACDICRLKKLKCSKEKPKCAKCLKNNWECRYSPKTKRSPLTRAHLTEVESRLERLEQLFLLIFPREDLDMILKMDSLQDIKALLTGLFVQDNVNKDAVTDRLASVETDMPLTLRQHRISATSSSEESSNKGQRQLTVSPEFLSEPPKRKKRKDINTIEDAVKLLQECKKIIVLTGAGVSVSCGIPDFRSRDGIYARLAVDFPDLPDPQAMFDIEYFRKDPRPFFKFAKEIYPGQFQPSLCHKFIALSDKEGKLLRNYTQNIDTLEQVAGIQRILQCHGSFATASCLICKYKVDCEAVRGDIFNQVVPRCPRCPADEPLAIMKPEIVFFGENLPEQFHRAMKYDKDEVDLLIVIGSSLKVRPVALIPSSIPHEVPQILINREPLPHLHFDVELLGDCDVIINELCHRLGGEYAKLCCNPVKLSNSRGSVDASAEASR
Description: A reporter gene transcription assay using a GAL4 DNA binding domain (GAL4 DBD) fusion system was developed to monitor the transcriptional regulatory activity of the mouse Sir2 ortholog, Sir2α. […] This assay system used the GAL4 DBD fused to the Sir2α catalytic core domain (GAL4 DBD-mCORE) and a luciferase reporter that has a thymidine kinase minimal promoter and four GAL4 binding sites.
For the luciferase assay, 1.2×10^5 NIH3T3 cells were plated in 6 cm dishes. 24 h after plating, cells were transfected for 3 h with 380 ng of pUAS4tk-luc as a reporter, 1.5 μg of pM or pM-GAL4 DBD-mCORE as an effector, and 38 ng of pRL-SV40 (Promega, Wis.) as a normalization control by using Superfect (Qiagen). Transfectants were harvested 48 h after transfection, and luciferase activity was measured with the Dual-Luciferase Reporter Assay System (Promega, Wis.) and a SIRIUS luminometer (Berthold Detection Systems, Germany) according to the manufacturers' protocols. Background luminescence was subtracted and was always less than 1% of measured values. Transfection efficiencies were normalized based on Renilla luciferase activities. […] To examine the effects of Nampt and Nmnat on the transcriptional repressive activity of GAL4 DBD-mCORE, NIH3T3 cells were co-transfected with indicated amounts of Nampt and Nmnat expression vectors along with reporter, effector and normalization control plasmids.

Row | Kcat [1] [s⁻¹] | Vmax [1] [µmol/min/mg] | Km ([1]; 37° C., pH 7.4) [µM] | Kcat [2] [s⁻¹] | Vmax [2] [µmol/min/mg] | effect on transcriptional repressive activity of GAL4 DBD-mCORE [3] | Compound | effect on total cellular NAD (NIH3T3 cells)
1 | 20.0 | 34.1 | 20.1 | – | – | – | NC(=O)c1ccc[n+]([C@@H]2O[C@H](COP(=O)([O-])O)[C@@H](O)[C@H]2O)c1 [NMN, nicotinamide mononucleotide] | –
2 | – | – | – | 0.020 | 0.021 | abolished | NC(=O)c1cccnc1 [Nicotinamide, 3-pyridinecarboxamide] | did not increase NAD; also recorded: unable to increase NAD
3 | – | – | – | – | – | not | O=C(O)c1cccnc1 [nicotinic acid] | –
